Source: patent publication US7816408B2, “Calcium receptor active compounds” (NPS Pharmaceuticals, Inc., priority 2002, dated 2010)

Key:
normal male SD rats = assay: Plasma Ca^2+ level of rats after single oral administration; format: in vivo; settings: rat, mean of six animals; for Plasma Ca^2+ (mmol/l) 1 hr: 1 hr after single oral dose 30 μmol/kg; for Plasma Ca^2+ (mmol/l) 1 hr / Plasma Ca^2+ (mmol/l) 2 hr / Plasma Ca^2+ (mmol/l) 4 hr / Plasma Ca^2+ (mmol/l) 8 hr / Plasma Ca^2+ (mmol/l) 23 hr (footnote *c, 24 hr column) / Plasma Ca^2+ (mmol/l) 0 hr: vehicle 10% cyclodextrin (** 1% sodium-CMC); for Plasma Ca^2+ (mmol/l) 2 hr: 2 hr after single oral dose 30 μmol/kg; for Plasma Ca^2+ (mmol/l) 4 hr: 4 hr after single oral dose 30 μmol/kg; for Plasma Ca^2+ (mmol/l) 8 hr: 8 hr after single oral dose 30 μmol/kg; for Plasma Ca^2+ (mmol/l) 23 hr (footnote *c, 24 hr column): 23 hr after single oral dose 30 μmol/kg; for Plasma Ca^2+ (mmol/l) 0 hr: 0 hr = before oral administration of 30 μmol/kg; for Plasma Ca^2+ (mmol/l) 28 hr (footnote *d, 24 hr column): 28 hr after single oral dose 30 μmol/kg, vehicle 10% cyclodextrin
How it was run: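 Normal male SD rats (n=6/group) received a single oral dose of 30 μmol/kg in 10% cyclodextrin or, for some compounds, 1% sodium-CMC; vehicle controls received 2.5 ml/kg. Tail blood was drawn pre-dose and at 30 min and 1, 2, 4, 8 and 24 h for plasma Ca^2+ and serum PTH. PTH was compared with vehicle by Steel's test.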

human calcium receptor = biological target: T1, human calcium receptor (Homo sapiens, UniProt P41180); assay: Activity on calcium receptors: fluo-3 fluorescence in HEK293 cells transfected with human calcium receptor gene; format: cell-based; settings: HEK293 cells transfected with plasmid pHuPCaR4.0 (human calcium receptor gene), loaded with fluo-3; 1 mM CaCl2, 1 mM MgCl2
T1 construct: expressed in transfected cells; host or cells: HEK293
T1 sequence (P41180 20-1078): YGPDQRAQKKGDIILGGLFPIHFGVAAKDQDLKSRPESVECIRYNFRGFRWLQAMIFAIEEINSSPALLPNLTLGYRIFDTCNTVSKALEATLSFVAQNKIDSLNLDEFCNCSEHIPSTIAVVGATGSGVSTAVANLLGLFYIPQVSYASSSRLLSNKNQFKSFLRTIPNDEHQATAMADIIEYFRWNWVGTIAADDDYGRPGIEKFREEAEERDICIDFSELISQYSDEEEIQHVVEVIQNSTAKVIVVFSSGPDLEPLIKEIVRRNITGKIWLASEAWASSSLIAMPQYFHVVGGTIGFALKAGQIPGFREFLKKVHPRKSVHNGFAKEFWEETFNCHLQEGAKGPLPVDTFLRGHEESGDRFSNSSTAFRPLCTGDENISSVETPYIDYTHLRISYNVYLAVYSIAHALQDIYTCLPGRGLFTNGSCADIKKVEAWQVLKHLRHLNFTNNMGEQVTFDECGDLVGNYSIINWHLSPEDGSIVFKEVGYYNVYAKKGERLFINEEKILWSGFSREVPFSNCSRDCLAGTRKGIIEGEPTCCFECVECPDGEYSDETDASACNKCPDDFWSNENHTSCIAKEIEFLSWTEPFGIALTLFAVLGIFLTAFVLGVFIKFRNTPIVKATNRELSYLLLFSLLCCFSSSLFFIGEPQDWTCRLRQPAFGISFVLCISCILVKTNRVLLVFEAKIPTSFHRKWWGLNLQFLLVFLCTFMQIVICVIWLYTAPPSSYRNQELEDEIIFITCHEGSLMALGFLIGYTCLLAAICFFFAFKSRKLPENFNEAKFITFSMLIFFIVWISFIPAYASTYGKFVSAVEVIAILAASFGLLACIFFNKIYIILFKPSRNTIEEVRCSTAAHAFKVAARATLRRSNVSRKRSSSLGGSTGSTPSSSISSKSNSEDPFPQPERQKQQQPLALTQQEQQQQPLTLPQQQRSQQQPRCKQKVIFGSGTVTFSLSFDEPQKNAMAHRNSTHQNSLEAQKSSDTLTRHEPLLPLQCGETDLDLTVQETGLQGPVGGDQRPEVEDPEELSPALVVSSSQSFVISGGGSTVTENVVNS
How it was run: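 HEK293 cells transfected with human calcium receptor plasmid, loaded 1 h at 37 °C with about 5 μM fluo-3/AM. Cells then rinsed into HEPES-buffered HBSS with 1 mM CaCl2 and 1 mM MgCl2. Fluorescence read at 485/540 nm after compound addition.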

SMILES | Plasma Ca^2+ (mmol/l) 1 hr (normal male SD rats) | Plasma Ca^2+ (mmol/l) 2 hr (normal male SD rats) | Plasma Ca^2+ (mmol/l) 4 hr (normal male SD rats) | Plasma Ca^2+ (mmol/l) 8 hr (normal male SD rats) | Plasma Ca^2+ (mmol/l) 23 hr (footnote *c, 24 hr column) (normal male SD rats) | EC50 (human calcium receptor) | Plasma Ca^2+ (mmol/l) 0 hr (normal male SD rats) | Plasma Ca^2+ (mmol/l) 28 hr (footnote *d, 24 hr column) (normal male SD rats)
Cc1ccc(CN(Cc2ccc(C(F)(F)F)cc2)C(=O)CCN[C@H](C)c2cccc3ccccc23)cc1 [Compound K-2299, N1-(4-methylbenzyl)-N1-[4-(trifluoromethyl)benzyl]-3-{[(1R)-1-(1-naphthyl)ethyl]amino}propanamide] | 1.287 mmol/L | 1.192 mmol/L | 0.998 mmol/L | 0.983 mmol/L | 1.382*^c mmol/l | 150 nM | – | –
Cc1ccc(CN(Cc2ccc(C)cc2)C(=O)CCN[C@H](C)c2cccc3ccccc23)cc1 [Compound K-2300, N1,N1-di(4-methylbenzyl)-3-{[(1R)-1-(1-naphthyl)ethyl]amino}propanamide] | 1.293 mmol/L | 1.158 mmol/L | 0.958 mmol/L | 1.022 mmol/L | 1.397*^c mmol/l | 140 nM | – | –
C[C@@H](NCCCCCCSc1ccc(OC(F)(F)F)cc1)c1cccc2ccccc12 [Compound K-2301] | 1.237 mmol/L | 1.165 mmol/L | 1.077 mmol/L | 1.075 mmol/L | 1.350*^c mmol/l | 800 nM | 1.397 mmol/L | –
Cc1ccc(SCCCCN[C@H](C)c2cccc3ccccc23)c(C)c1 [Compound K-2302, N-{4-[(2,4-dimethylphenyl)thio]butyl}-N-[(1R)-1-(1-naphthyl)ethyl]amine] | 1.238 mmol/L | 1.130 mmol/L | 0.978 mmol/L | 1.010 mmol/L | – | 500 nM | – | –
Cc1ccc(SC(C)CCCN[C@H](C)c2cccc3ccccc23)c(C)c1 (some centres unmarked) [Compound K-2303] | 1.255 mmol/L | 1.165 mmol/L | 1.020 mmol/L | 1.032 mmol/L | – | 350 nM | 1.415 mmol/L | –
Cc1ccc(SCCCCN[C@H](C)c2cccc3ccccc23)cc1 [Compound K-2304, N-{4-[(4-methylphenyl)thio]butyl}-N-[(1R)-1-(1-naphthyl)ethyl]amine] | 1.262 mmol/L | 1.157 mmol/L | 1.053 mmol/L | 1.065 mmol/L | – | 98 nM | – | –
Cc1ccc(SCCCCCN[C@H](C)c2cccc3ccccc23)cc1 [Compound K-2305] | 1.242 mmol/L | 1.170 mmol/L | 1.098 mmol/L | 1.202 mmol/L | – | 110 nM | 1.415 mmol/L | –
COc1ccc(CN(Cc2ccc(Cl)c(Cl)c2)C(=O)CCN[C@H](C)c2cccc3ccccc23)cc1 [Compound K-2309, N1-(3,4-dichlorobenzyl)-N1-(4-methoxybenzyl)-3-{[(1R)-1-(1-naphthyl)ethyl]amino}propanamide] | 1.320 mmol/L | 1.207 mmol/L | 1.018 mmol/L | 0.963 mmol/L | – | 66 nM | – | 1.332*^d mmol/l
Cc1ccc(CN(Cc2ccc(OC(F)(F)F)cc2)C(=O)CCN[C@H](C)c2cccc3ccccc23)cc1 [Compound K-2310, N1-(4-methylbenzyl)-N1-[4-(trifluoromethoxy)benzyl]-3-{[(1R)-1-(1-naphthyl)ethyl]amino}propanamide] | 1.342 mmol/L | 1.188 mmol/L | 1.008 mmol/L | 0.943 mmol/L | – | 59 nM | – | 1.330*^d mmol/l
COc1ccc(CN(Cc2ccc(OC(F)(F)F)cc2)C(=O)CCN[C@H](C)c2cccc3ccccc23)cc1 [Compound K-2311] | 1.375 mmol/L | 1.232 mmol/L | 1.075 mmol/L | 1.110 mmol/L | – | 53 nM | 1.447 mmol/L | –
